# Like-named read-outs stand apart in the source and are kept apart here. Ends that are not written are not given here.
# Key:
# [1] = tested on: HeLa cells; assay: Evaluation of peptide permeability into cells (fluorescein-labeled peptide incorporated into HeLa cells); format: cell-based
# Method: In DMEM medium supplemented with 10% FBS, 0.2 ml of HeLa cells were plated on a 96-well glass bottom plate, and the cells were cultured at 37° C. for 48 to 72 hours to allow the cells to adhere to the bottom surface. After 3 times of washing with 200 μl of PBS, 50 μl of DMEM medium containing each of the peptides of SEQ ID NOs:1 to 6 labeled with fluorescein at the amino terminus (contract synthesis by Sigma-Genosys) at a final concentration of 5 μM and FBS at a final concentration of 10% was added to each well. The plate was incubated in a CO2 incubator for 3 hours and then washed 3 times with DMEM medium supplemented with 10% FBS, followed by addition of 50 μl of a lysis solution (10 mM Tris-HCl, 5 mM EDTA, 100 mM NaCl, 1% SDS, 100 μg/ml proteinase K) and 1 hour of incubation at room temperature, to decompose the cells and the peptides incorporated into the cells. The whole lysis solution was recovered, and the amount of fluorescein incorporated into the cells was measured using a fluorescence intensity measuring apparatus (HORIBA FLUOROMAX-3) at an excitation wavelength of 494 nm and a fluorescence wavelength of 512 nm.
# (§1) Further, the amount of fluorescein incorporated into the cells was measured by the same method as in Example 1.
# [2] = tested on: HeLa cells; assay: Evaluation of promotion of transfer of polystyrene beads into cells; format: cell-based; details: Example 3, beads alone or with peptide 1 μM, 3 hours, FIG. 3
# Method: In DMEM medium supplemented with 10% FBS, 0.2 ml of HeLa cells were plated on a 96-well glass bottom plate, and the cells were cultured at 37° C. for 48 to 72 hours to allow the cells to adhere to the bottom surface. After 3 times of washing with 200 μl of PBS, 50 μl of DMEM medium containing each of the peptides of SEQ ID NOs:1 to 6 labeled with fluorescein at the amino terminus (contract synthesis by Sigma-Genosys) at a final concentration of 1 μM, fluorescent polystyrene beads (Fluorospheres Carboxylated Microbeads, 0.1 μm; manufactured by Molecular probes, Inc.) at a final concentration of 1 μl/well and 10% FBS was added to each well. The plate was incubated in a CO2 incubator for 3 hours and then washed 3 times with DMEM medium supplemented with 10% FBS, followed by addition of 50 μl of a lysis solution (10 mM Tris-HCl, 5 mM EDTA, 100 mM NaCl, 1% SDS, 100 μg/ml proteinase K) and 1 hour of incubation at room temperature, to decompose the cells. The whole lysis solution was recovered, and the amount of fluorescent polystyrene beads incorporated into the cells was measured using a fluorescence intensity measuring apparatus at an excitation wavelength of 580 nm and a fluorescence wavelength of 605 nm.
# [3] = tested on: HeLa cells; assay: Localization of rhodamine-labeled insulin in HeLa cells by confocal laser microscope; format: cell-based; details: Example 2, peptide added together with rhodamine-labeled insulin, FIG. 12
# Method: (§2) The rhodamine-labeled insulin was prepared by the following method. […] To the resulting solution, 4 mg of NHS-rhodamine (Pierce) dissolved in 0.5 ml of DMSO was added, and the reaction was allowed to proceed at room temperature overnight.
# [4] = tested on: HeLa cells; assay: Evaluation of promotion of insulin transfer into cells (rhodamine-labeled insulin incorporated, fluorescence intensity of lysate); format: cell-based; details: for incorporation of rhodamine-labeled insulin into the cells (in words): Example 2, rhodamine-labeled human insulin 100 μg/ml alone or with peptide, 3 hours, FIG. 2
# Method: In DMEM medium supplemented with 10% FBS, 0.2 ml of HeLa cells were plated on a 96-well glass bottom plate, and the cells were cultured at 37° C. for 48 to 72 hours to allow the cells to adhere to the bottom surface.
# as §2, §1
# [5] = Intestinal administration of insulin with peptide (ileal loop) to rats; format: in vivo; details: Example 8, insulin 50 IU/kg with 0.5 mM peptide, male SD rat, FIG. 10
# Method: A silicone tube was […] cm distant from the ileocecal junction toward the ileum, and a feeding needle was inserted at a position about 10 cm upward therefrom. Further, sutures were passed through an area of 6 cm between these. From the feeding needle, 20 ml of phosphate buffered saline (PBS) at pH 7.4 prewarmed to 37° C. was fed at a flow rate of 5 ml/min. to allow discharging of the contents, and the silicone tube was plugged, followed by administering 1 ml of PBS prewarmed to 37° C. from the feeding needle and keeping it retained for 30 minutes. After the administration, the feeding needle was quickly plugged and the intestinal tract was returned into the abdominal cavity, followed by closing the site of incision with a clip and allowing the rat to keep still. […] The rat during the experiment was fixed on its back on a hot plate kept at 37° C. by a hot-water circulating pump to regulate the body temperature. […] Also for rats to which the same quantity of the insulin solution alone was subcutaneously administered, the blood collection and the measurement were carried out in the same manner.
# [6] = Intranasal administration of interferon β with peptide to rats (plasma interferon β level); details: Example 6, interferon β 0.18×10^6 IU/kg alone or with 0.5 mM peptide, FIG. 7
# [7] = Intranasal administration of insulin with peptide to rats (blood glucose, plasma insulin, bioavailability, AUC); details: Example 4, insulin 1 IU/kg alone or mixed with 0.5 mM peptide (L-body), male SD rat, FIG. 5
# [8] = tested on: nasal cavity; assay: Evaluation of damage to nasal cavity (LDH leakage into washing solution); details: Example 9; mixed solution of peptide and insulin, intranasal, washing 15 minutes later, FIG. 11
# [9] = Intranasal administration of exendin-4 with peptide to rats (plasma exendin-4 level); details: Example 7, exendin-4 0.25 mg/kg alone or with 0.5 mM peptide, FIG. 8
# [10] = rat, in vivo, 0.25 mg/kg
substance,measurement,setting,value
"SEQ ID NO:6: Random peptide, cell membrane non-permeable; sequence not printed (EYDLSTAGGAAAC; Synthetic peptide random peptide)",incorporation of fluorescein-labeled peptide into the cells (in words),"[1]; Example 1, fluorescein-labeled peptide 5 μM, 3 hours, FIG. 1",hardly incorporated into the cells
same,"fluorescein incorporated into the cells, of the fluorescein added","[1]; Example 12, fluorescein-labeled peptides, incubation 5 hours, FIG. 15",about 0.2%
same,incorporation of fluorescent polystyrene beads into the cells (in words),[2],almost no incorporation
same,"permeation of rhodamine-labeled insulin into the cells, confocal laser microscope",[3],did not allow permeation
same,incorporation of rhodamine-labeled insulin into the cells (in words),[4],almost no incorporation
same,"rhodamine-labeled insulin incorporated into the cells, of the amount added","[4]; Example 12, fluorescein-labeled peptides added together with rhodamine-labeled insulin, incubation 5 hours, FIG. 16",about 0.2%
"rhodamine-labeled insulin: human insulin reacted with NHS-rhodamine (Pierce); fluorescent probe, added alone",incorporation of rhodamine-labeled insulin into the cells (in words),[4],almost no incorporation
KWFRIQMQIKKWRNRR [SEQ ID NO:4],"blood insulin level after intestinal administration, compared to insulin alone",[5],evident increase
same,plasma interferon β level after intranasal administration,[6],transfer of interferon β into the blood from immediately after the administration
"RWFKIQMQIRRWKNKK [SEQ ID NO:1, R W F K I Q M Q I R R W K N K K]",blood insulin level after intranasal administration,[7],transfer of insulin into the blood was observed from immediately after the administration
same,"release of LDH from the nasal cavity, compared to 5% (w/v) sodium taurodeoxycholate",[8],significantly lower
same,"blood insulin level after intestinal administration, compared to insulin alone",[5],evident increase
same,plasma exendin-4 level after intranasal administration,[9],transfer of exendin-4 into the blood from immediately after the administration
same,plasma interferon β level after intranasal administration,[6],transfer of interferon β into the blood from immediately after the administration
exendin-4,plasma exendin-4 level after intranasal administration,[10],almost no increase

# Source: patent US8772449B2, “Cell-penetrating peptides” (Toray Industries, Inc., priority 2009, dated 2014)
